Reference: the supplement of paper PMC10011410

system: U-2 OS; assay: AUC of culture confluence over time (live-cell imaging) (AUC (confluence % x time)); higher = more confluent culture (less growth inhibition); conditions: 0.625 µM
Outline: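 Confluence of U-2 OS cells in F-12K medium with 10% FBS was tracked by live-cell imaging. Cells were seeded at 750 per well in 384-well plates and treated 24 h later by pin tool, with most compounds at 20, 10 and 5 μM and 0.2% DMSO. Cells were kept at 37 °C and imaged every 4 h for up to 60 h on an Incucyte S3 with a 10x objective. The value is the area under the confluence-versus-time curve.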

With `COC[C@H]1OC(=O)c2coc3c2[C@@]1(C)C1=C(C3=O)[C@@H]2CCC(=O)[C@@]2(C)C[C@H]1OC(C)=O` the “AUC of culture confluence over time” value was 57.9.

same assay, conditions: 1.25 µM

In the case of `COC[C@H]1OC(=O)c2coc3c2[C@@]1(C)C1=C(C3=O)[C@@H]2CCC(=O)[C@@]2(C)C[C@H]1OC(C)=O`, the “AUC of culture confluence over time” value is reported as 56.1.

same assay, conditions: 2.5 µM

In the case of `COC[C@H]1OC(=O)c2coc3c2[C@@]1(C)C1=C(C3=O)[C@@H]2CCC(=O)[C@@]2(C)C[C@H]1OC(C)=O`, the “AUC of culture confluence over time” value is reported as 56.6.

same assay, conditions: 5 µM

First: Cl.Cl.O=C(O)Cn1nnc(-c2ccc(CN(CCCCOc3ccc(CN4CCCC4)cc3)CCc3ccccc3)cc2)n1
Second: Cn1c(=O)n(-c2ccc(C(C)(C)C#N)cc2)c2c3cc(-c4cnc5ccccc5c4)ccc3ncc21
The “AUC of culture confluence over time” value of the first is higher: 48.1 for the first, 31.4 for the second.

First: COC[C@H]1OC(=O)c2coc3c2[C@@]1(C)C1=C(C3=O)[C@@H]2CCC(=O)[C@@]2(C)C[C@H]1OC(C)=O
Second: O=C(NNS(=O)(=O)c1ccccc1F)c1cc(F)cc(-c2ccccn2)c1
The “AUC of culture confluence over time” value of the first is higher: 49.5 for the first, 47.7 for the second.

Compared with `Oc1cccc(O)c1O`, `O=S1(=O)CCc2ccccc21` is higher in “AUC of culture confluence over time” value: 46.4 for the first, 51 for the second.

Going from `c1ccc(-c2noc(NC3CCCC3)n2)cc1` to `Cc1cc(-c2ccccc2)cc(C(=O)NNS(=O)(=O)c2ccccc2)c1F`, the “AUC of culture confluence over time” value rises from 44 to 52.8.

First: CCOc1cc2ncc(C#N)c(Nc3ccc(OCc4ccccn4)c(Cl)c3)c2cc1NC(=O)/C=C/CN(C)C
Second: Cc1cc2c(C(C)C)c(O)c(O)c(C=O)c2c(O)c1-c1c(C)cc2c(C(C)C)c(O)c(O)c(C=O)c2c1O
The “AUC of culture confluence over time” value of the first is lower: 33.1 for the first, 48.5 for the second.

same assay, conditions: 10 µM

Compared with `Cl.Cl.O=C(O)Cn1nnc(-c2ccc(CN(CCCCOc3ccc(CN4CCCC4)cc3)CCc3ccccc3)cc2)n1`, `Cn1c(=O)n(-c2ccc(C(C)(C)C#N)cc2)c2c3cc(-c4cnc5ccccc5c4)ccc3ncc21` is lower in “AUC of culture confluence over time” value: 49 for the first, 28.4 for the second.

Compared with `COC[C@H]1OC(=O)c2coc3c2[C@@]1(C)C1=C(C3=O)[C@@H]2CCC(=O)[C@@]2(C)C[C@H]1OC(C)=O`, `O=C(NNS(=O)(=O)c1ccccc1F)c1cc(F)cc(-c2ccccn2)c1` is higher in “AUC of culture confluence over time” value: 38.5 for the first, 48.6 for the second.

First: Oc1cccc(O)c1O
Second: O=S1(=O)CCc2ccccc21
The “AUC of culture confluence over time” value of the first is lower: 48 for the first, 51.8 for the second.

First: c1ccc(-c2noc(NC3CCCC3)n2)cc1
Second: Cc1cc(-c2ccccc2)cc(C(=O)NNS(=O)(=O)c2ccccc2)c1F
The “AUC of culture confluence over time” value of the first is lower: 42.5 for the first, 51.6 for the second.

First: CCOc1cc2ncc(C#N)c(Nc3ccc(OCc4ccccn4)c(Cl)c3)c2cc1NC(=O)/C=C/CN(C)C
Second: Cc1cc2c(C(C)C)c(O)c(O)c(C=O)c2c(O)c1-c1c(C)cc2c(C(C)C)c(O)c(O)c(C=O)c2c1O
The “AUC of culture confluence over time” value of the first is lower: 34.1 for the first, 36.2 for the second.

same assay, conditions: 20 µM

Going from `Cl.Cl.O=C(O)Cn1nnc(-c2ccc(CN(CCCCOc3ccc(CN4CCCC4)cc3)CCc3ccccc3)cc2)n1` to `Cn1c(=O)n(-c2ccc(C(C)(C)C#N)cc2)c2c3cc(-c4cnc5ccccc5c4)ccc3ncc21`, the “AUC of culture confluence over time” value falls from 47.5 to 27.6.

Going from `COC[C@H]1OC(=O)c2coc3c2[C@@]1(C)C1=C(C3=O)[C@@H]2CCC(=O)[C@@]2(C)C[C@H]1OC(C)=O` to `O=C(NNS(=O)(=O)c1ccccc1F)c1cc(F)cc(-c2ccccn2)c1`, the “AUC of culture confluence over time” value rises from 28.4 to 51.9.

Going from `Oc1cccc(O)c1O` to `O=S1(=O)CCc2ccccc21`, the “AUC of culture confluence over time” value rises from 38.4 to 54.2.

First: c1ccc(-c2noc(NC3CCCC3)n2)cc1
Second: Cc1cc(-c2ccccc2)cc(C(=O)NNS(=O)(=O)c2ccccc2)c1F
The “AUC of culture confluence over time” value of the first is lower: 44.2 for the first, 46.7 for the second.

Compared with `CCOc1cc2ncc(C#N)c(Nc3ccc(OCc4ccccn4)c(Cl)c3)c2cc1NC(=O)/C=C/CN(C)C`, `Cc1cc2c(C(C)C)c(O)c(O)c(C=O)c2c(O)c1-c1c(C)cc2c(C(C)C)c(O)c(O)c(C=O)c2c1O` is higher in “AUC of culture confluence over time” value: 21.3 for the first, 32.6 for the second.

same assay, conditions: 40 µM

First: Cl.Cl.O=C(O)Cn1nnc(-c2ccc(CN(CCCCOc3ccc(CN4CCCC4)cc3)CCc3ccccc3)cc2)n1
Second: Cc1cc2c(C(C)C)c(O)c(O)c(C=O)c2c(O)c1-c1c(C)cc2c(C(C)C)c(O)c(O)c(C=O)c2c1O
The “AUC of culture confluence over time” value of the first is higher: 19.9 for the first, 18.2 for the second.

same assay, conditions: 80 µM

Going from `Cl.Cl.O=C(O)Cn1nnc(-c2ccc(CN(CCCCOc3ccc(CN4CCCC4)cc3)CCc3ccccc3)cc2)n1` to `Cc1cc2c(C(C)C)c(O)c(O)c(C=O)c2c(O)c1-c1c(C)cc2c(C(C)C)c(O)c(O)c(C=O)c2c1O`, the “AUC of culture confluence over time” value rises from 12.3 to 18.5.

system: U-2 OS; assay: intracellular GSH:GSSG ratio (calculated); higher = more reduced glutathione pool; conditions: 5 µM; 24 h
Outline: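 In white low-volume 384-well plates, 750 U-2 OS cells per well were treated by pin tool after 24 h, most compounds at 20, 10 and 5 μM with 0.4% DMSO, and incubated for 24 h at 37 °C. Total glutathione and GSSG, or viability, were then read by luminescence using GSH/GSSG-Glo or CellTiter-Glo on separate plates. Values, corrected for background and row/column position, are given relative to vehicle or as a GSH:GSSG ratio.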

Going from `Cl.Cl.O=C(O)Cn1nnc(-c2ccc(CN(CCCCOc3ccc(CN4CCCC4)cc3)CCc3ccccc3)cc2)n1` to `Cn1c(=O)n(-c2ccc(C(C)(C)C#N)cc2)c2c3cc(-c4cnc5ccccc5c4)ccc3ncc21`, the “intracellular GSH:GSSG ratio” value rises from 20.2 to 23.9.

First: COC[C@H]1OC(=O)c2coc3c2[C@@]1(C)C1=C(C3=O)[C@@H]2CCC(=O)[C@@]2(C)C[C@H]1OC(C)=O
Second: O=C(NNS(=O)(=O)c1ccccc1F)c1cc(F)cc(-c2ccccn2)c1
The “intracellular GSH:GSSG ratio” value of the first is higher: 26.3 for the first, 21.6 for the second.

Compared with `Oc1cccc(O)c1O`, `O=S1(=O)CCc2ccccc21` is higher in “intracellular GSH:GSSG ratio” value: 22.7 for the first, 26 for the second.

Going from `c1ccc(-c2noc(NC3CCCC3)n2)cc1` to `Cc1cc(-c2ccccc2)cc(C(=O)NNS(=O)(=O)c2ccccc2)c1F`, the “intracellular GSH:GSSG ratio” value rises from 28.5 to 37.

Going from `CCOc1cc2ncc(C#N)c(Nc3ccc(OCc4ccccn4)c(Cl)c3)c2cc1NC(=O)/C=C/CN(C)C` to `Cc1cc2c(C(C)C)c(O)c(O)c(C=O)c2c(O)c1-c1c(C)cc2c(C(C)C)c(O)c(O)c(C=O)c2c1O`, the “intracellular GSH:GSSG ratio” value rises from 11.7 to 16.4.

same assay, conditions: 10 µM; 24 h

Compared with `Cl.Cl.O=C(O)Cn1nnc(-c2ccc(CN(CCCCOc3ccc(CN4CCCC4)cc3)CCc3ccccc3)cc2)n1`, `Cn1c(=O)n(-c2ccc(C(C)(C)C#N)cc2)c2c3cc(-c4cnc5ccccc5c4)ccc3ncc21` is higher in “intracellular GSH:GSSG ratio” value: 19.8 for the first, 22.6 for the second.

Going from `COC[C@H]1OC(=O)c2coc3c2[C@@]1(C)C1=C(C3=O)[C@@H]2CCC(=O)[C@@]2(C)C[C@H]1OC(C)=O` to `O=C(NNS(=O)(=O)c1ccccc1F)c1cc(F)cc(-c2ccccn2)c1`, the “intracellular GSH:GSSG ratio” value falls from 27.5 to 19.3.

First: Oc1cccc(O)c1O
Second: O=S1(=O)CCc2ccccc21
The “intracellular GSH:GSSG ratio” value of the first is lower: 8.34 for the first, 25.7 for the second.

Compared with `c1ccc(-c2noc(NC3CCCC3)n2)cc1`, `Cc1cc(-c2ccccc2)cc(C(=O)NNS(=O)(=O)c2ccccc2)c1F` is lower in “intracellular GSH:GSSG ratio” value: 30.3 for the first, 26 for the second.

First: CCOc1cc2ncc(C#N)c(Nc3ccc(OCc4ccccn4)c(Cl)c3)c2cc1NC(=O)/C=C/CN(C)C
Second: Cc1cc2c(C(C)C)c(O)c(O)c(C=O)c2c(O)c1-c1c(C)cc2c(C(C)C)c(O)c(O)c(C=O)c2c1O
The “intracellular GSH:GSSG ratio” value of the first is lower: 10.4 for the first, 15.8 for the second.

same assay, conditions: 20 µM; 24 h

Going from `Cl.Cl.O=C(O)Cn1nnc(-c2ccc(CN(CCCCOc3ccc(CN4CCCC4)cc3)CCc3ccccc3)cc2)n1` to `Cn1c(=O)n(-c2ccc(C(C)(C)C#N)cc2)c2c3cc(-c4cnc5ccccc5c4)ccc3ncc21`, the “intracellular GSH:GSSG ratio” value rises from 15.4 to 29.4.

First: COC[C@H]1OC(=O)c2coc3c2[C@@]1(C)C1=C(C3=O)[C@@H]2CCC(=O)[C@@]2(C)C[C@H]1OC(C)=O
Second: O=C(NNS(=O)(=O)c1ccccc1F)c1cc(F)cc(-c2ccccn2)c1
The “intracellular GSH:GSSG ratio” value of the first is lower: 21.8 for the first, 22.2 for the second.

Compared with `Oc1cccc(O)c1O`, `O=S1(=O)CCc2ccccc21` is higher in “intracellular GSH:GSSG ratio” value: 5.48 for the first, 22.4 for the second.

First: c1ccc(-c2noc(NC3CCCC3)n2)cc1
Second: Cc1cc(-c2ccccc2)cc(C(=O)NNS(=O)(=O)c2ccccc2)c1F
The “intracellular GSH:GSSG ratio” value of the first is lower: 26 for the first, 29 for the second.

Going from `CCOc1cc2ncc(C#N)c(Nc3ccc(OCc4ccccn4)c(Cl)c3)c2cc1NC(=O)/C=C/CN(C)C` to `Cc1cc2c(C(C)C)c(O)c(O)c(C=O)c2c(O)c1-c1c(C)cc2c(C(C)C)c(O)c(O)c(C=O)c2c1O`, the “intracellular GSH:GSSG ratio” value falls from 8.69 to 7.02.

same assay, conditions: 40 µM; 24 h

`Cl.Cl.O=C(O)Cn1nnc(-c2ccc(CN(CCCCOc3ccc(CN4CCCC4)cc3)CCc3ccccc3)cc2)n1` was tested, and the “intracellular GSH:GSSG ratio” value was 14.3.
